Experimental data published in PMC9021288 (Nature Communications, 2022).
Where “and” joins values, the source holds several entries; their conditions need not be identical. Equal entries are not always repeated.

Assays:
[1] = system: AcAS (PF3D7_0627800); assay: Cellular thermal shift assay on parasite lysate; format: binding, Plasmodium falciparum; conditions: 1 µM; for AcAS band intensity normalized to DMSO at 37 °C: listed as iPanAm
Experimental: A cellular thermal shift assay (CETSA) was performed on infected RBCs or parasite lysates as described previously.
For a CETSA on parasite lysates, synchronized trophozoite cultures (ACS11-tagged parasites) were treated with 0.1% saponin to lyse the RBCs, and washed three times in PBS. Subsequently, parasite pellets were resuspended in 1× lysis buffer and subjected to three flash-freeze-thaw cycles using liquid nitrogen, followed by mechanical shearing using a syringe with a 25 G and a 30 G needle. Samples were spun down at 18,000 g for 20 min at 4 °C. The supernatant was diluted to 2.1 mg/ml protein concentration, and 100 µl was added to each PCR tube containing 1 µl of the compound at a 100× concentration (final concentration of 1 µM). Samples were incubated for 30 min at room temperature, subjected to a thermal gradient for 3 min on a pre-heated PCR machine, followed by 4 °C for 3 min. Samples were spun down at 18,000 g for 20 min at 4 °C and the soluble fraction was flash-frozen in liquid nitrogen and stored at −80 °C.
Samples were loaded on an 8% SDS-Page gel (Genscript) with 4×10^6 infected RBCs or 50 µg protein for the parasite lysate approach. Proteins were transferred to a nitrocellulose membrane that was blocked with 5% skim milk (Sigma) in PBS overnight and incubated with rabbit antiserum against AcAS (1:1000) for 1 h. Subsequently, membranes were washed three times with PBS-Tween for 5 min, followed by incubation with secondary horseradish peroxide (HRP)-conjugated goat anti-rabbit antibodies (Dako P0448, 1:1000) for 1 h. Blots were then washed three times with PBS-Tween for 5 min and twice with PBS. Following a 5-min incubation with Clarity Max Western ECL Substrate (BioRad), protein blots were imaged using the ImageQuant LAS4000 (GE Healthcare). The band intensity was quantified using Fiji software.

[2] = Renal excretion in dogs; format: in vivo, dog; conditions: for Concentration (ng/ml) in urine: dog urine, individual dogs 1-3
Experimental: A blood sample from the saphenous vein was collected into heparinized capillary tubes at multiple intervals between 0.25 and 24 h after dosing. Subsequently, samples were spun down at 1640 g for 5-10 min at 4 °C within 30 min after collection and plasma was collected. […] Urine was collected following an intravenous dose in both rat and dog, allowing renal clearance to be estimated. Human renal clearance was estimated from dog renal clearance as previously described[40] and other human PK parameters were predicted using allometric scaling and/or in vitro clearance data. PK parameters were calculated by naïve pooled approach using WinNonLin software (Phoenix, version 6.3).

[3] = system: rat primary hepatocytes; assay: Primary hepatocyte viability (CellTiter-Blue), rat; format: cell-based; conditions: for %Viability: Rat primary hepatocytes
Experimental: Safety studies were performed by commercial services using their standard protocols. […] Genotoxicity was investigated using the Ames test (Bacterial Reverse Mutation Assay) (Covance Laboratories Ltd, North Yorkshire, England). In vitro mammalian cell micronucleus screening assay was studied in human peripheral blood lymphocytes (BioReliance Corporation, Rockville, USA). Cardiotoxicity was determined against the hERG channel in an automated patch clamp assay using the Qpatch or against the hNaV 1.5, hKV 1.5 and hCaV 1.2 using a manual patch-clamp technique (Metrion Biosciences, Cambridge, UK). Cytotoxicity in human and rat primary hepatocytes was assessed using the CellTiter-Blue assay performed by commercial services (KaLy-Cell). The viability of HepG2 cells was monitored through the addition of 1 mM resazurin. Following 6 h incubation, the relative amount of reduced resazurin was detected in a fluorimeter and compared to the assay controls (vehicle: 0.1% DMSO and positive control: 10 µM puromycin).

With `C[C@@H](CNC(=O)[C@H](O)C(C)(C)CO)NC(=O)c1cc(F)c(F)cc1F` [MMV693183] the “AcAS band intensity normalized to DMSO at 37 °C” value (“AcAS band intensity normalized” for short) ([1]; 37 °C) was 134.836, the “AcAS band intensity normalized” value ([1]; 42 °C) was 174.374 and the “AcAS band intensity normalized” value ([1]; 47 °C) was 76.9786. The “AcAS band intensity normalized” value ([1]; 52 °C) was 24.7861, the AcAS thermal stability ([1]; 30 min, parasite lysate) was “neither the parent compound MMV693183 nor its derivative 4’P-MMV693183 affected AcAS stability” and the “Observed renal plasma clearance” value ([2]; Dog) was 1.0 mL/min/kg. For the same molecule, the Dose in urine ([2]; Mean) was 0.0332, the Total in urine ([2]; Mean) was 384 µg and the “Concentration (ng/ml) in urine” value ([2]; interval 0 to 4 h) was 2790 ng/mL and 4550 ng/mL and 7660 ng/mL. The “Concentration (ng/ml) in urine” value ([2]; interval 8 to 24 h) was 6890 ng/mL and 3700 ng/mL, the “drug eliminated in urine” value ([2]; dogs, i.v. 1 mg/kg, dog with 170 ml urine) was 8.9% and the Dose in urine ([2]; i.v. 1 mg/kg, total per animal 1-3, 1 mg/kg) was 0.002 and 0.089 and 0.009. The Total in urine ([2]; total 0-24 h per animal 1-3) was 22.32 µg and 1030.9 µg and 98.8 µg, the “%Viability” value ([3]; Batch R14I19, 0.1 µM) was 103% and the “%Viability” value ([3]; Batch R14I19, 0.5 µM) was 105%. For the same molecule, the “%Viability” value ([3]; Batch R14I19, 1 µM) was 101%, the “%Viability” value ([3]; Batch R14I19, 5 µM) was 101% and the “%Viability” value ([3]; Batch R14I19, 10 µM) was 101%. For the same molecule, the “%Viability” value ([3]; Batch R17G25, 0.1 µM) was 111%, the “%Viability” value ([3]; Batch R17G25, 0.5 µM) was 109% and the “%Viability” value ([3]; Batch R17G25, 1 µM) was 111%. The “%Viability” value ([3]; Batch R17G25, 5 µM) was 106%, the “%Viability” value ([3]; Batch R17G25, 10 µM) was 106% and the IC50 ([3]; primary rat hepatocytes) was greater than 10 µM.
